In ChEMBL document CHEMBL6127106, “Novel Far-Red Fluorescent 1,4-Dihydropyridines for L-Type Calcium Channel Imaging” (J Med Chem, 2024) one finds Activity, inhibition and IC50 data, which are given here for 14 molecules.

In series [1] the target is T1, Voltage-dependent L-type calcium channel subunit alpha-1C (Homo sapiens, UniProt Q13936). Briefly: Antagonist activity at Cav1.2 (unknown origin) stably expressed in HEK293 cells assessed as inhibition of LTCC current by Whole cell patch clamp assay. Format: cell-based. The following applies: for Activity: human, hek293. A general note: In patch-clamp work, channel activity is measured electrically.

In series [2] the target is T2, Voltage-gated L-type calcium channel (Homo sapiens, UniProt Q13936+Q13698+Q01668+O60840). Briefly: Antagonist activity at L-type calcium channel in human mesoangioblast-derived myotube assessed as reduction in KCL-mediated depolarization of cytosolic (Ca2+) increase at 10 uM incubated for 25 mins in presence of KCl by live-cell imaging based analysis.
The target in series [3] is T1, Voltage-dependent L-type calcium channel subunit alpha-1C. Briefly: Antagonist activity at Cav1.2 (unknown origin) stably expressed in HEK293 cells at 10 uM assessed as inhibition of LTCC current by Whole cell patch clamp assay relative to control. Format: cell-based. The following applies: read-out: Activity.
In series [4] the target is T2, Voltage-gated L-type calcium channel. Briefly: Binding affinity to LTCC in endogenously expressing human SH-SY5Y cells assessed as increase in fluorescence intensity at 50 to 100 nM in presence of nifedipine by fluorescence based confocal microscopy analysis. Format: cell-based. The following applies: dose 50-100 nM.
Series [5] concerns the target T1, Voltage-dependent L-type calcium channel subunit alpha-1C. Briefly: Binding affinity to GFP-tagged Cav1.2alpha 1C (unknown orign) transfected with human HeLa cells assessed as increase in fluorescence intensity in cytoplasm at 25 to 100 nM in presence of nifedipine by fluorescence based confocal microscopy analysis. Conditions: dose 25-100 nM; call rule not given here. Format: cell-based.

Series [6] shares this target. Briefly: Binding affinity to GFP-tagged Cav1.2alpha 1C (unknown orign) transfected with human HeLa cells assessed as increase in fluorescence intensity at 25 to 100 nM in presence of nifedipine by fluorescence based confocal microscopy analysis. The following applies: dose 25-100 nM. Format: cell-based.
Series [7] has the same target. Briefly: Binding affinity to GFP-tagged Cav1.2alpha 1C (unknown orign) transfected with human HeLa cells assessed as increase in fluorescence intensity at 50 nM incubated for 5 mins by fluorescence based confocal microscopy analysis. Format: cell-based. The following applies: 0.05 µM.
Series [8] concerns the target T2, Voltage-gated L-type calcium channel. Briefly: Antagonist activity at L-type calcium channel in Ca1520-loade human SH-SY5Y cells assessed as inhibition of KCL-mediated depolarization of cytosolic (Ca2+) increase incubated for 5 mins in presence of KCl by live-cell imaging based analysis.

T1 sequence (Q13936 whole entry): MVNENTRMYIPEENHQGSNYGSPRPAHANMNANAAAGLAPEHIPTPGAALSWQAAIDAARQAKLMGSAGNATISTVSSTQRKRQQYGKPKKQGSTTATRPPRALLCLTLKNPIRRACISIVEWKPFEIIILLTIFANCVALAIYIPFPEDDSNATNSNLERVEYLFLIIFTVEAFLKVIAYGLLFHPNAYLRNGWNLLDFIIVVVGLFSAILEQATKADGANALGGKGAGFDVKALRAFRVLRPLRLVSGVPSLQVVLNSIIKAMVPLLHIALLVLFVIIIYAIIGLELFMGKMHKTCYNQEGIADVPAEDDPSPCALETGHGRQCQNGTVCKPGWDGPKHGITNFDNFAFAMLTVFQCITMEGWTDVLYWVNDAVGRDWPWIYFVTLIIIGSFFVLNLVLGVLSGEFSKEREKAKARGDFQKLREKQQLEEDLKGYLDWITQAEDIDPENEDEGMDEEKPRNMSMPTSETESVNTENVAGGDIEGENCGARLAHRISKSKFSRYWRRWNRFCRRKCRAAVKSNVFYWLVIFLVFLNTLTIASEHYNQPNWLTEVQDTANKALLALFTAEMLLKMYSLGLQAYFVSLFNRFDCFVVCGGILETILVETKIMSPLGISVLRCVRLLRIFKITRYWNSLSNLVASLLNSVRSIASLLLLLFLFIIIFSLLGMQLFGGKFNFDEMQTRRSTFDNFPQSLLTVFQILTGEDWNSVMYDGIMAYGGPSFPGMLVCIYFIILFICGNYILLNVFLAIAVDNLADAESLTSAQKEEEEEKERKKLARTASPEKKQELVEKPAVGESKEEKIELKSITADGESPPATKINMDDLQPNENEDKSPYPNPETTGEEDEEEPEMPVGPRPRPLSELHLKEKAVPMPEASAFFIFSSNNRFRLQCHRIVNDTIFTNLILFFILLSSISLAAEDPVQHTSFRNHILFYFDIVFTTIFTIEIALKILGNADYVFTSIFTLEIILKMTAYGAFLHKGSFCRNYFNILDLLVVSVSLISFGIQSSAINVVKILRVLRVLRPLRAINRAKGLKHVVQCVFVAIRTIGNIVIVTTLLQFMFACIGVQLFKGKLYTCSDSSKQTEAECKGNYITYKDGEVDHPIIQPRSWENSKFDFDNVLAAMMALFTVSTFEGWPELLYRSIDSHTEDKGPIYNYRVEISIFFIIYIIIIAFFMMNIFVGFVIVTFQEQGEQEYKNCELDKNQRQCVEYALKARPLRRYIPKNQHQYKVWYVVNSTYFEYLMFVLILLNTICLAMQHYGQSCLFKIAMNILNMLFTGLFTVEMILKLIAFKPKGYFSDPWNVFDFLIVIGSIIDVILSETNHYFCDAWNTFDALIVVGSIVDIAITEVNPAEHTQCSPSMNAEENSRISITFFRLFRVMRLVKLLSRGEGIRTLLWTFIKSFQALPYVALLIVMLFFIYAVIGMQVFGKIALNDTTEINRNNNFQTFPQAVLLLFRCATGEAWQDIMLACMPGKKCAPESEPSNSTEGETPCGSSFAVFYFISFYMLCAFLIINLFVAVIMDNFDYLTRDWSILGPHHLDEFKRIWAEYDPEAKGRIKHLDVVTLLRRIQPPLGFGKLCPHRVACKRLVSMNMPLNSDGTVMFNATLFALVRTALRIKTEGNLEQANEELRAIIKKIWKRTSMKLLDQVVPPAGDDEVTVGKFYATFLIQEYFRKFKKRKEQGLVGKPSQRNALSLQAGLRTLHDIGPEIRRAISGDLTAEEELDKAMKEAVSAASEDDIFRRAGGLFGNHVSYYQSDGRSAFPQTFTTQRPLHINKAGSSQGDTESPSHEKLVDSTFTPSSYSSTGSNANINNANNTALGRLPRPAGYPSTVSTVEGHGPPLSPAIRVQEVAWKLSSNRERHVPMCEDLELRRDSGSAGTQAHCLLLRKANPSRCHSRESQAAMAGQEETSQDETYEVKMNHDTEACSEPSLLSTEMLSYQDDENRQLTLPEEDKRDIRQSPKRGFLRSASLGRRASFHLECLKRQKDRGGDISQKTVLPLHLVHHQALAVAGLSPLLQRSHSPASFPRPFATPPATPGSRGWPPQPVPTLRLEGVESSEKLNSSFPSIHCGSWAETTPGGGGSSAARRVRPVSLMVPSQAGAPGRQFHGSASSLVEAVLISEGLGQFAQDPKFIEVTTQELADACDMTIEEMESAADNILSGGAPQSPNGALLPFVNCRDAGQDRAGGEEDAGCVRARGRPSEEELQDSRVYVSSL

Regarding `COC(=O)C1=C(C)NC(C)=C(C(=O)OCCCCCCCCNC(=O)CCCCC[N+]2=C(/C=C/C=C/C=C3/N(C)c4ccccc4C3(C)C)C(C)(C)c3ccccc32)C1c1cccc(Cl)c1Cl` (stereo unspecified), the Activity result was “Not Active” in series [1] and “Active” in series [2]. The inhibition at 10 µM in series [3] turned out to be 46%.

Turning to `COC(=O)C1=C(C)NC(C)=C(C(=O)OCCOCCNC(=O)CCCCC[N+]2=C(/C=C/C=C/C=C3N(C)c4ccccc4C3(C)C)C(C)(C)c3ccccc32)[C@@H]1c1cccc(Cl)c1Cl`, the IC50 – broadly, the concentration needed to halve the response being measured – in series [1] is 6.53 µM. For the same molecule, in series [2], the result was Active. Besides, in series [3], the inhibition at 10 µM stood at 70%.

With `COC(=O)C1=C(C)NC(C)=C(C(=O)OCCOCCNC(=O)CCCCC[N+]2=C(/C=C/C=C/C=C3/N(C)c4ccccc4C3(C)C)C(C)(C)c3ccccc32)C1c1ccccc1[N+](=O)[O-]` (stereo unspecified), in series [1], the IC50 amounted to 2.2 µM. The result in series [2] was Active. In addition, the inhibition at 10 µM in series [3] was 83%.

Take `COC(=O)C1=C(C)NC(C)=C(C(=O)OCCCCCCNC(=O)CCCCC[N+]2=C(/C=C/C=C/C=C3/N(C)c4ccccc4C3(C)C)C(C)(C)c3ccccc32)C1c1ccccc1[N+](=O)[O-]` (stereo unspecified): the IC50 in series [1] was 12.7 µM. For the same molecule, the result in series [2] was Active. In addition, the inhibition at 10 µM in series [3] came out at 52%.

Turning to `COC(=O)C1=C(C)NC(C)=C(C(=O)OCCNC(=O)CCCCC[N+]2=C(/C=C/C=C/C=C3/N(C)c4ccccc4C3(C)C)C(C)(C)c3ccccc32)C1c1cccc(Cl)c1Cl` (stereo unspecified), the IC50 in series [1] amounted to 4.25 µM. The outcome in series [2] was Active. Further, the inhibition at 10 µM in series [3] was found to be 72%.

With `COC(=O)C1=C(C)NC(C)=C(C(=O)OCCCCCCNC(=O)CCCCC[N+]2=C(/C=C/C=C/C=C3/N(C)c4ccccc4C3(C)C)C(C)(C)c3ccccc32)C1c1cccc(Cl)c1Cl` (stereo unspecified), the half-maximal inhibitory concentration (IC50) in series [1] came out at 12.5 µM. In addition, in series [2], the result was Active. Moreover, in series [3], the inhibition at 10 µM came out at 50%.

`COC(=O)C1=C(C)NC(C)=C(C(=O)OCCOCCNC(=O)CCCCC[N+]2=C(/C=C/C=C/C=C3\N(C)c4ccccc4C3(C)C)C(C)(C)c3ccccc32)[C@H]1c1cccc(Cl)c1Cl`: the Activity result in series [4] is recorded as “Not Active”; in series [5], “Not Active”; in series [6] it was “Not Active”; in series [2], “Active”; in series [7], “Active”; in series [8] (human, 5 min, dose 0.1-10000 nM) it was “Dose-Dependent Effect”. Besides, the concentration for half-maximal inhibition (IC50) in series [1] worked out at 0.65 µM; in series [8], 1.08 µM. In series [3], the inhibition at 10 µM was 94%.

`COC(=O)C1=C(C)NC(C)=C(C(=O)OCCOCCOCCNC(=O)CCCCC[N+]2=C(/C=C/C=C/C=C3\N(C)c4ccccc4C3(C)C)C(C)(C)c3ccccc32)C1c1cccc(Cl)c1Cl` (stereo unspecified): in series [1], the IC50 amounted to 3.5 µM. Besides, the outcome in series [2] was Active. The inhibition at 10 µM in series [3] is 77%.

In the case of `COC(=O)C1=C(C)NC(C)=C(C(=O)OCCOCCNC(=O)CCCCC[N+]2=C(/C=C/C=C/C=C3/N(C)c4ccccc4C3(C)C)C(C)(C)c3ccccc32)C1c1cccc(Cl)c1Cl` (stereo unspecified), the IC50 in series [1] was 7.48 µM. Moreover, the result in series [2] was Active. Also, the inhibition at 10 µM in series [3] was 62%.

Turning to `COC(=O)C1=C(C)NC(C)=C(C(=O)OCCCCCCCCNC(=O)CCCCC[N+]2=C(/C=C/C=C/C=C3/N(C)c4ccccc4C3(C)C)C(C)(C)c3ccccc32)C1c1ccccc1[N+](=O)[O-]` (stereo unspecified), the IC50 in series [1] amounted to 1.9 µM. For the same molecule, the result in series [2] was Active. Further, the inhibition at 10 µM in series [3] is 87%.

Consider `COC(=O)C1=C(C)NC(C)=C(C(=O)OCCCCCCNC(=O)CCCCCNC(=O)Oc2ccc(/C=C/C3=[N+]4C(=Cc5ccc(-c6cccs6)n5[B-]4(F)F)C=C3)cc2)C1c1cccc(Cl)c1Cl` (stereo unspecified), for which the Activity result in series [1] and in series [2] was “Not Active” in each case. Further, the inhibition at 10 µM in series [3] was determined as 24%.

For `COC(=O)C1=C(C)NC(C)=C(C(=O)OCCOCCNC(=O)CCCCC[N+]2=C(/C=C/C=C/C=C3/N(C)c4ccccc4C3(C)C)C(C)(C)c3ccccc32)C1c1ccccc1OS(=O)(=O)F` (stereo unspecified), the IC50 in series [1] is 1.51 µM. Moreover, the result in series [2] was Active. Further, in series [3], the inhibition at 10 µM was determined as 88%.

As to `COC(=O)C1=C(C)NC(C)=C(C(=O)OCCOCCNC(=O)CCCCC[N+]2=C(/C=C/C=C/C=C3/N(C)c4ccccc4C3(C)C)C(C)(C)c3ccccc32)C1c1ccccc1/C=C/C(=O)OC(C)(C)C` (stereo unspecified), the 50% inhibitory concentration (IC50) in series [1] came to 1.07 µM. Besides, in series [2], the outcome was Active. For the same molecule, in series [3], the inhibition at 10 µM was found to be 97%.

`COC(=O)C1=C(C)NC(C)=C(C(=O)OC)C1c1ccccc1[N+](=O)[O-]` [NIFEDIPINE]: the inhibition at 10 µM in series [3] is 102%.
